Measured values taken from patent publication US20160145257A1, “SUBSTITUTED XANTHINES AND METHODS OF USE THEREOF” (Hydra Biosciences, Inc., priority 2013, published 2016).
Structures can show the parent of a compound that is named as a salt.

Molecular target: T1, hTRPC5 (Homo sapiens, UniProt Q9UL62)
T1 construct: expressed in transfected cells; host or cells: HEK293 TREx cells with inducible TRPC5 expression
T1 sequence (Q9UL62 1-973): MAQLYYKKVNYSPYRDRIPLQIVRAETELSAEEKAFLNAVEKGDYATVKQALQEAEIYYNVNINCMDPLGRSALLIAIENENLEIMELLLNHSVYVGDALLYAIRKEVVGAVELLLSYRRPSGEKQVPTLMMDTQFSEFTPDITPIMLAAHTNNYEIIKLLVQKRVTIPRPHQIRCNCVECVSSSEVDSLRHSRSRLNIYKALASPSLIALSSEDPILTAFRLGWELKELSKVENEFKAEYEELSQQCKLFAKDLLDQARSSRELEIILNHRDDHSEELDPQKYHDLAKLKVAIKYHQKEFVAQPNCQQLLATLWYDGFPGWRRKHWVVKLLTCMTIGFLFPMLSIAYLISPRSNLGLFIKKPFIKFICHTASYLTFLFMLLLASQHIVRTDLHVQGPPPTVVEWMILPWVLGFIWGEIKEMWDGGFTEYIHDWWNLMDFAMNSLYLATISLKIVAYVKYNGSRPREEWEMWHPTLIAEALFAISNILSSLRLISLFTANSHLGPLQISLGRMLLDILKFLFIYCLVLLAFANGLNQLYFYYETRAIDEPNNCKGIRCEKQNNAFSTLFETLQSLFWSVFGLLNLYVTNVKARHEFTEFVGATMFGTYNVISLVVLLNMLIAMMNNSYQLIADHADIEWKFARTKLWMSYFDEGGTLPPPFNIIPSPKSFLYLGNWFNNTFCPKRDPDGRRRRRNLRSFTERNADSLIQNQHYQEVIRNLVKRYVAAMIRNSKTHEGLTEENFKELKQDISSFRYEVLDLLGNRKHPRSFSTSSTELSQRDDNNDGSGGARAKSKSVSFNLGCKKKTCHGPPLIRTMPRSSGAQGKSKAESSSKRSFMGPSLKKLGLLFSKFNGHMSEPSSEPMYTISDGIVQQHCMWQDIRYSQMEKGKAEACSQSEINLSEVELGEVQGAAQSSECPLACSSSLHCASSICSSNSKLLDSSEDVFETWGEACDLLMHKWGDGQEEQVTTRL
Test: Whole-cell patch clamp, block of LaCl3-activated TRPC5 inward current
Type: cell-based
Settings: TRPC5-expressing HEK293 TREx cells, 80 μM LaCl3, inward current, IC50 estimated from 5 μM and 500 nM, read-out: hTRPC5 Patch La3+ Inwd (nM) (All Batches)
Method: In certain embodiments, exemplary compounds of Formula I and Formula II include the compounds described in Table 1 and in the Examples. A compound described herein may be tested for its ability to block both inward and outward currents through the TRPC5 channel, e.g., by an assay as described in Example 1. For example, IC50 of a compound of Formula I or Formula II was estimated by testing the compound at 5 μM and 500 nM. […] IC50 for a compound of Formula I or Formula II between 500 nM and 5 μM was similarly estimated. As shown, “A” refers to an IC50<100 nM. “B” refers to an IC50 between 100 nM and 500 nM. “C” refers to an IC50 between 500 nM and 1000 nM. “D” refers to an IC50 between 1 μM and 2 μM. “E” refers to an IC50 between 2 μM and 10 μM. “F” refers to […]. “ND” refers to compounds wherein the IC50 was not determined.
Patch clamp experiments permit the detection of currents through the TRPC5 channel in the cell line described above. In normal whole-cell patch clamp recordings, a glass electrode is brought into contact with a single cell and a high-resistance (gigaohm) seal is established with the cell membrane. The membrane is then ruptured to achieve the whole-cell configuration, permitting control of the voltage of the cell membrane and measurement of currents flowing across the membrane using the amplifier attached to the electrode and resulting in the replacement of cytoplasm with the pipette solution. A perfusion system permits control of the extracellular solution, including the addition of blockers and activators of the current. The current can be activated by including 1.4 μM free Ca^2+ in the pipette (intracellular) solution, and 80 μM LaCl3 in the extracellular solution.
TRPC5 cells were induced 20-48 hours, removed from growth plates, and replated at low density (to attain good single-cell physical separation) on glass coverslips for measurement. In some cases, cells were grown in low density overnight on glass coverslips. Patch clamp recordings were made in the whole-cell mode with a holding potential of −40 mV. Every 5 seconds, a voltage ramp was applied from −120 to +100 mV, 400 ms in duration. Currents elicited were quantified at −80 mV and +80 mV. The internal solution consisted of 140 mM cesium aspartate, 10 mM HEDTA, 2 mM CaCl2, 2.27 mM MgCl2 and 10 mM HEPES, pH 7.2, with 1,400 nM calculated free Ca^2+. The external solution consisted of 150 mM NaCl, 4.5 mM KCl, 1 mM MgCl2, 2 mM CaCl2, 10 mM HEPES, 10 mM glucose, 1 mM EGTA, pH 7.4. Upon addition of LaCl3, TRPC5 current was induced only in TRPC5-expressing cells and not in parental HEK293 TREx cells. Removal of the LaCl3 stimulus causes most of the current to go away. Potential blockers were tested for ability to block both inward and outward currents in the continued presence of LaCl3.
IC50 of a compound of Formula I or Formula II was estimated by testing the compound at 5 μM and 500 nM. […] IC50 for a compound of Formula I or Formula II between 500 nM and 5 μM was similarly estimated.

Row | IC50 [nM] | SMILES
1 | 2000 to 10000 | Cn1c(=O)c2c(nc(CO)n2Cc2cccc(Br)c2)n(C)c1=O [Compound 35]
2 | 100 to 500 | CCOCCSc1nc2c(c(=O)n(C)c(=O)n2C)n1Cc1cccc(Br)c1 [Compound 6, 7-(3-bromobenzyl)-8-(2-ethoxyethylthio)-1,3-dimethyl-1H-purine-2,6(3H,7H)-dione]
3 | 2000 to 10000 | CCCOCCc1nc2c(c(=O)n(C)c(=O)n2C)n1Cc1cccc(C(C)=O)c1 [Compound 159]
4 | 2000 to 10000 | CCNCCCc1nc2c(c(=O)n(C)c(=O)n2C)n1Cc1cccc(Br)c1 [Compound 53]
5 | 2000 to 10000 | Cn1c(=O)c2c(nc(CCCl)n2Cc2cccc(Br)c2)n(C)c1=O [Compound 40, 7-(3-Bromobenzyl)-8-(2-chloroethyl)-1,3-dimethyl-1H-purine-2,6(3H,7H)-dione]
6 | 1000 to 2000 | CCOC(=O)CCCc1nc2c(c(=O)n(C)c(=O)n2C)n1Cc1cccc(Br)c1 [Compound 50, Ethyl 4-(7-(3-bromobenzyl)-1,3-dimethyl-2,6-dioxo-2,3,6,7-tetrahydro-1H-purin-8-yl)butanoate]
7 | 2000 to 10000 | CCCNCCc1nc2c(c(=O)n(C)c(=O)n2C)n1Cc1cccc(Br)c1 [Compound 46]
8 | 100 to 500 | CCCOCCOc1nc2c(c(=O)n(C)c(=O)n2C)n1Cc1cccc(Br)c1 [Compound 99, 7-(3-bromobenzyl)-1,3-dimethyl-8-(2-propoxyethoxy)-1H-purine-2,6(3H,7H)-dione]
9 | 2000 to 10000 | CCOCCCc1nc2c(c(=O)n(C)c(=O)n2C)n1Cc1cccc(Br)c1 [Compound 54, 7-(3-bromobenzyl)-8-(3-ethoxypropyl)-1,3-dimethyl-1H-purine-2,6(3H,7H)-dione]

More lines, now with the values behind:

Row | SMILES | IC50 [nM]
10 | CCc1coc(CSc2nc3c(c(=O)n(C)c(=O)n3C)n2Cc2cccc(Cl)c2)n1 [Compound 134, 7-(3-chlorobenzyl)-8-((4-ethyloxazol-2-yl)methylthio)-1,3-dimethyl-1H-purine-2,6(3H,7H)-dione] | 100 to 500
11 | CCc1coc(CSc2nc3c(c(=O)n(C)c(=O)n3C)n2Cc2ccc(Cl)cc2)n1 [Compound 146, 7-(4-chlorobenzyl)-8-((4-ethyloxazol-2-yl)methylthio)-1,3-dimethyl-1H-purine-2,6(3H,7H)-dione] | < 100
12 | Cn1c(=O)c2c(nc(Oc3cccc(C#N)c3)n2Cc2cccc(Br)c2)n(C)c1=O [Compound 112, 3-(7-(3-bromobenzyl)-1,3-dimethyl-2,6-dioxo-2,3,6,7-tetrahydro-1H-purin-8-yloxy)benzonitrile] | 2000 to 10000
13 | CNCc1cccc(Oc2nc3c(c(=O)n(C)c(=O)n3C)n2Cc2ccc(Cl)cc2)c1 [Compound 163, 7-(4-Chlorobenzyl)-1,3-dimethyl-8-(3-((methylaminol)methyl)phenoxy)-1H-purine-2,6(3H,7H)-dione hydrochloride] | 2000 to 10000
14 | CCOC(=O)C(C)Cc1nc2c(c(=O)n(C)c(=O)n2C)n1Cc1cccc(Br)c1 (centres unmarked) [Compound 87] | 500 to 1000
15 | Cn1c(=O)c2c(nc(Oc3cccc(C(F)(F)F)c3)n2Cc2ccc(Cl)nc2)n(C)c1=O [Compound 143, 7-((6-chloropyridin-3-yl)methyl)-1,3-dimethyl-8-(3-(trifluoromethyl)phenoxy)-1H-purine-2,6(3H,7H)-dione] | 2000 to 10000
16 | Cc1ccc(Oc2nc3c(c(=O)n(C)c(=O)n3C)n2Cc2ccc(Cl)cc2)cc1C(F)(F)F [Compound 199] | 2000 to 10000
17 | CCc1coc(CSc2nc3c(c(=O)n(C)c(=O)n3C)n2Cc2ccc(OC)cc2)n1 [Compound 131, 8-((4-ethyloxazol-2-yl)methylthio)-7-(4-methoxybenzyl)-1,3-dimethyl-1H-purine-2,6(3H,7H)-dione] | 500 to 1000
18 | CC1CCN(Cc2nc3c(c(=O)n(C)c(=O)n3C)n2Cc2cccc(Br)c2)CC1 [Compound 44] | 2000 to 10000
19 | CCOC(=O)Cc1nc2c(c(=O)n(C)c(=O)n2C)n1Cc1cccc(Br)c1 [Compound 34, Ethyl 2-(7-(3-bromobenzyl)-1,3-dimethyl-2,6-dioxo-2,3,6,7-tetrahydro-1H-purin-8yl)acetate] | 2000 to 10000
20 | Cn1c(=O)c2c(nc(Oc3cncc(C(F)(F)F)c3)n2Cc2ccc(Cl)cc2)n(C)c1=O [Compound 184, 7-(4-chlorobenzyl)-1,3-dimethyl-8-(5-(trifluoromethyl)pyridin-3-yloxy)-1H-purine-2,6(3H,7H)-dione] | 1000 to 2000
21 | CCOCC(C)(C)Sc1nc2c(c(=O)n(C)c(=O)n2C)n1Cc1cccc(Br)c1 [Compound 56, 7-(3-bromobenzyl)-8-(1-ethoxy-2-methylpropan-2-ylthio)-1,3-dimethyl-1H-purine-2,6(3H,7H)-dione] | 1000 to 2000
22 | CCOC(=O)CCC(C)c1nc2c(c(=O)n(C)c(=O)n2C)n1Cc1cccc(Br)c1 (centres unmarked) [Compound 135, Ethyl 4-(7-(3-bromobenzyl)-1,3-dimethyl-2,6-dioxo-2,3,6,7-tetrahydro-1H-purin-8-yl)pentanoate] | 500 to 1000
23 | CCOC(=O)c1cccc(Oc2nc3c(c(=O)n(C)c(=O)n3C)n2Cc2cccc(Br)c2)c1 [Compound 57, Ethyl 3-(7-(3-bromobenzyl)-1,3-dimethyl-2,6-dioxo-2,3,6,7-tetrahydro-1H-purin-8-yloxy)benzoate] | < 100
24 | CCCOCCc1nc2c(c(=O)n(C)c(=O)n2C)n1Cc1ccc(OC(F)(F)F)cc1 [Compound 109] | 1000 to 2000
25 | Cn1c(=O)c2c(nc(Oc3cccc(C(F)(F)F)c3)n2S(=O)(=O)c2ccc(Cl)cc2)n(C)c1=O [Compound 190] | 2000 to 10000
26 | CCCC(O)c1cccc(Oc2nc3c(c(=O)n(C)c(=O)n3C)n2Cc2cccc(Br)c2)c1 (centres unmarked) [Compound 173, 7-(3-bromobenzyl)-8-(3-(1-hydroxybutyl)phenoxy)-1,3-dimethyl-1H-purine-2,6(3H,7H)-dione] | 2000 to 10000
27 | Cn1c(=O)c2c(nc(Oc3cccc(Cl)c3)n2Cc2cccc(Br)c2)n(C)c1=O [Compound 110, 7-(3-bromobenzyl)-8-(3-chlorophenoxy)-1,3-dimethyl-1H-purine-2,6(3H,7H)-dione] | 100 to 500
28 | CCc1coc(C(C)(C)Sc2nc3c(c(=O)n(C)c(=O)n3C)n2Cc2cccc(Br)c2)n1 [Compound 100, 7-(3-bromobenzyl)-8-(2-(4-ethyloxazol-2-yl)propan-2-ylthio)-1,3-dimethyl-1H-purine-2,6(3H,7H)-dione] | 100 to 500
29 | CN(C)Cc1cccc(Oc2nc3c(c(=O)n(C)c(=O)n3C)n2Cc2ccc(Cl)cc2)c1 [Compound 164, 7-(4-Chlorobenzyl)-8-(3-((dimethylaminol)methyl)phenoxy)-1,3-dimethyl-1H-purine-2,6(3H,7H)-dione hydrochloride] | 2000 to 10000
